{"source": "patent US6025374A", "about": "“Azetidine, pyrrolidine and piperidine derivatives as 5HT1 receptor agonists” (Merck Sharp & Dohme, Ltd., priority 1994, dated 2000)", "origin": "cited, not measured here", "conditions": "therapeutic doses; literature"}
{"compound": "CNS(=O)(=O)Cc1ccc2[nH]cc(CCN(C)C)c2c1", "note": "[sumatriptan]", "values": [{"measurement": "adverse events in humans", "result": "certain adverse cardiovascular events"}]}
